Test results published in patent publication US8604218B2, “Cytoskeletal active rho kinase inhibitor compounds, composition and use” (Inspire Pharmaceuticals, Inc., priority 2006, dated 2013).

Assays:
[1] = molecular target: ROCK2 (Homo sapiens (Human), UniProt O75116); test: Rho Kinase Inhibition Assay (IMAP fluorescence polarization); type: biochemical; conditions: isolated enzyme, 10 μM ATP, 60 minutes at room temperature
[2] = test system: NIH/3T3 cells; test: NIH/3T3 Cell Morphology Assay (actin disruption); type: cell-based; conditions: 1 μM test compound, 60 minutes at 37° C.; score of actin cytoskeleton disruption from 0 (no effect) to 4 (complete disruption), average of at least 2 determinations
Experimental: NIH/3T3 cells were grown in DMEM-H containing glutamine and 10% Colorado Calf Serum. Cells were passaged regularly prior to reaching confluence. Eighteen to 24 hours prior to experimentation, the cells were plated onto Poly-L-Lysine-coated glass bottom 24-well plates. On the day of experimentation, the cell culture medium was removed and was replaced with the same medium containing from 10 nM to 25 μM of the test compound, and the cells were incubated for 60 minutes at 37° C. The culture medium was then removed and the cells were washed with warmed PBS and fixed for 10 minutes with warmed 4% paraformaldehyde. The cells were permeabilized with 0.5% Triton-X, stained with TRITC-conjugated phalloidin and imaged using a Nikon Eclipse E600 epifluorescent microscope to determine the degree of actin disruption. Results were expressed as a numerical score indicating the observed degree of disruption of the actin cytoskeleton at the test concentration, ranging from 0 (no effect) to 4 (complete disruption), and were the average of at least 2 determinations.
All compounds tested show measurable activity in the cell morphology assay, with most of the compounds providing substantial effects on the actin cytoskeleton at the testing concentration (score of 2 at 1 μM). […] These morphology changes are thought to provide the basis for the beneficial pharmacological effects sought in the setting of the disease processes described in this application, specifically the lowering of elevated IOP in hypertensive eyes via increased outflow through the trabecular meshwork.

Chain of ROCK2 (O75116 11-552): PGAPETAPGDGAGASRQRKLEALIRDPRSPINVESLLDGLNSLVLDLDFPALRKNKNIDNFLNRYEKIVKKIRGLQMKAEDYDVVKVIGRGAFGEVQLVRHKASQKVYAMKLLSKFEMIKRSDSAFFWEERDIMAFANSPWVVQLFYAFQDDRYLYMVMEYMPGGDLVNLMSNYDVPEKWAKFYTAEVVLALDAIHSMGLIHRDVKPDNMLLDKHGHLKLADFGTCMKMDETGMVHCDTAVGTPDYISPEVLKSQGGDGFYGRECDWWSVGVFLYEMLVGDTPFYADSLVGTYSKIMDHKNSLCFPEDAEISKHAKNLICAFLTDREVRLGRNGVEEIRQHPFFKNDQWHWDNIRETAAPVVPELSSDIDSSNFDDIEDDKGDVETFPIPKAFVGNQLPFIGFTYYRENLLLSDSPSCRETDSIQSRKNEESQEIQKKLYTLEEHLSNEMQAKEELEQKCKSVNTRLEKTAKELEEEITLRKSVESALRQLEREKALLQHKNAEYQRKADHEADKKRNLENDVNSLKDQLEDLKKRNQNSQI

IC50 [1] | Compound | Cell score at 1 μM [2]
2.58 µM | CS(=O)(=O)c1ccc(CN2CCCC(Nc3cccc4cnccc34)C2)cc1 (stereo not drawn) [Compound 2.002, N-(1-(4-(methylsulfonyl)benzyl)piperidin-3-yl)isoquinolin-5-amine] | 1.8
3.65 µM | CC(=O)Nc1ccc(CN2CCC(Nc3cccc4cnccc34)C2)cc1 (stereo not drawn) [Compound 2.008, N-(4-((3-(isoquinolin-5-ylamino)pyrrolidin-1-yl)methyl)phenyl)acetamide] | 1

Compound | IC50 [1] | Cell score at 1 μM [2]
CSc1ccc(CN2CC[C@@H](Nc3cccc4cnccc34)C2)cc1 [Compound 2.026, (R)-N-(1-(4-(methylthio)benzyl)pyrrolidin-3-yl)isoquinolin-5-amine] | 6.33 µM | 2
